The text below walks through data of publication PMC3379896 (ACS medicinal chemistry letters, 2012).

One experiment addresses T1, MMP-7 (Homo sapiens, UniProt P09237).
T1 sequence (P09237 95-267): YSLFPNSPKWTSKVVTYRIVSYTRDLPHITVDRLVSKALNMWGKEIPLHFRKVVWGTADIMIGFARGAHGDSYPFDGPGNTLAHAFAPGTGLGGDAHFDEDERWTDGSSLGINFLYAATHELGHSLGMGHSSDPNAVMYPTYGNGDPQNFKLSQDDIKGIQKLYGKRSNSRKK
The experiment in a line: Kinetic inhibition of MMP-7. It is filed as biochemical. The conditions noted are these: read-out: MMP-7 inhibition at fixed concentration.

In the next experiment the target is MMP-14 (Homo sapiens, UniProt P50281). The experiment in a line: Kinetic inhibition of MMP-14. The conditions noted are these: slow-binding.
The target of a further experiment is T2, MMP-1 (Homo sapiens, UniProt P03956).
T2 sequence (P03956 100-469): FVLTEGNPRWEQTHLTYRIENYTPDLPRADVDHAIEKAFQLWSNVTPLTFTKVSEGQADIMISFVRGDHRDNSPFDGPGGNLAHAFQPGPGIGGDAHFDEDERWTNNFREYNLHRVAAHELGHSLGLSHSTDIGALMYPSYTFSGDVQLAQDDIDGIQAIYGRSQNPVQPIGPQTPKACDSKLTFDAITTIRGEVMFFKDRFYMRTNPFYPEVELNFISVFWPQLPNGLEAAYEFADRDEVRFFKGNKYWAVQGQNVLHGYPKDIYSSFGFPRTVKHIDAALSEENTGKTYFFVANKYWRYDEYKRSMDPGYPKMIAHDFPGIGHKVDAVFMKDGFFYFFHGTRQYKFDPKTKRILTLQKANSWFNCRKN
Kind of experiment: Kinetic inhibition of MMP-1. It is filed as biochemical. The following applies: read-out: MMP-1 inhibition at fixed concentration.

Turning to `O=S(=O)(CC1CS1)c1ccc(Oc2ccc(OC(F)(F)F)cc2)cc1` (stereo not drawn) [Compound 38a], the inhibition at 20 µM at MMP-7 is 0 to 3%. The “MMP-14 inhibition, in words” value on MMP-14 is listed as “include MMP-14 in their spectrum of inhibition”. For `O=S(=O)(CC1CS1)c1ccc(Oc2ccc(I)cc2)cc1` (stereo not drawn) [Compound 22a], the inhibition at 10 µM on MMP-7 lay within 0 to 3%. Also, the “MMP-14 inhibition, in words” value on MMP-14 is reported as “include MMP-14 in their spectrum of inhibition”. At MMP-1, the inhibition at 60 µM is 0 to 3%. With `COCOc1ccc(Oc2ccc(S(=O)(=O)CC3CS3)cc2)cc1` (stereo not drawn) [Compound 33a], the “MMP-14 inhibition, in words” value on MMP-14 is listed as “include MMP-14 in their spectrum of inhibition”. With `O=S(=O)(CC1CS1)c1ccc(Oc2cccc(F)c2)cc1` (stereo not drawn) [Compound 19b], on MMP-7, the inhibition at 125 µM is 0 to 3%. Moreover, the “MMP-14 inhibition, in words” value at MMP-14 is reported as “include MMP-14 in their spectrum of inhibition”. Regarding `O=S(=O)(CC1CS1)c1ccc(Oc2ccc(CO)cc2)cc1` (stereo not drawn) [Compound 26], the “MMP-14 inhibition, in words” value at MMP-14 was “include MMP-14 in their spectrum of inhibition”.

As for `CC(C)Oc1ccc(Oc2ccc(S(=O)(=O)CC3CS3)cc2)cc1` (stereo not drawn) [Compound 32], at MMP-14, the “MMP-14 inhibition, in words” value is given as “include MMP-14 in their spectrum of inhibition”.

Regarding `O=S(=O)(CC1CS1)c1ccc(Oc2ccc(F)cc2)cc1` (stereo not drawn) [Compound 19a], at MMP-14, the “MMP-14 inhibition, in words” value is recorded as “include MMP-14 in their spectrum of inhibition”. For the same molecule, the inhibition at 20 µM at MMP-1 was 0 to 3%.
